# Measured values: patent publication US20070015232A1, “Mitotic index assay” (DiscoveRx, Inc., priority 2005, published 2007)
# Experiments:
# [1] = test system: Clone #69 CHO-K1 cells expressing EA-NLS/NRS and GR-PL; experiment: EFC assay in stable clone #69 (CHO-K1, EA-NLS/NRS and GR-PL) with or without RU486 pre-incubation; assay type: cell-based; settings: overnight, vehicle pre-incubation
# Description: In the next experiment, a stable clone (clone #69) expressing both EA-NLS/NRS and GR-PL was isolated in a CHO-K1 parental background. […] 20,000 cells/well were plated in a 96 well white coming multi-well plate and allowed to adhere overnight. The next day, the cells were washed two times with serum free F12 media and 100 μL of serum free F12 media was added to the cells. The cells were then incubated in either vehicle (ethanol-1% final concentration) or 10 μM RU486 for one hour. To the cells, three different concentrations of dexamethasone (300, 100, 30 μM) (an agonist of GR), RU486 (30, 10, 3.33 μM), colchicine (1, 0.3, 0.1 μ/mL) or nocodazole (10, 3.33, 1.11 μg/mL) were added and the incubation went overnight at 37° C. with 5% CO2. The next day, the media was aspirated off and 100 μL of Tropix/ABI Gal screen cell lysis/substrate reagent was added to the cells. The plate was read on the Victor II reader at 30, 60 and 120 minutes.
# [2] = test system: CHO-K1+EA-NLS/NRS+GR-PL cells; experiment: EFC mitotic index assay, CHO-K1+EA-NLS/NRS+GR-PL cells, antibiotic selected pool (DX M19/GR pool); assay type: cell-based; settings: for Avg luminescence readout / R1 luminescence readout / R3 luminescence readout / Ratio (Avg vs 0 conc): 24 hours, 30 min read
# Description: (§1) In all experiments described, 20,000 cells/well were plated in a 96 well Corning clear bottom white plate in a total volume of 100 μL. The cells were treated for 24 hours with 5 μL of either the appropriate vehicle control or varying concentrations of the six compounds listed above. The next day, 100 μL of Tropix/ABI Gal screen cell lysis buffer/substrate mixture (24:1 ratio of component) was added to the cells/media and the plate was read on the Victor II luminescent plate reader at 30, 60 and 120 minutes after the lysis/substrate addition.
# (§2) The initial test of the cell cycle arresting compounds was performed on a double stable cell line having both of the constructs expressing the EA-NLS/NRS and GR-PL. (PL is β-galactosidase enzyme donor fragment and EA is the enzyme acceptor fragment available from DiscoveRx, Fremont, CA.). The parental line, C2C12 is derived from mouse muscle cells. In the experiments in which EA-NLS/NRS and GR-PL are expressed in the C2C12 parental cell line, the constructs were generated by subcloning the human GR sequence into a MFG-based retroviral vector that had been molecularly altered in a lab at Stanford. An MFG vector is described in U.S. Pat. No. 6,544,771. The EA-NLS/NRS fragment was subcloned into a wzl-based retroviral vector again molecularly altered in a lab at Stanford. In the experiments performed using a CHO-K1 parental cell line background the EA-NLS/NRS was subcloned into the Kpn I and Xba I sites of pcDNA3.1 Hygro vector from Invitrogen (catalog #V870-20). The plasmid was introduced into the cells via FuGene6 (Roche) transfection reagent. Cells were selected in the presence of 250 μg/mL of Hygromycin and single cell clones isolated that expressed the EA-NLS/NRS. The human GR gene was cloned by PCR and subcloned into the Xho I and Bam HI sites of the DiscoveRx vector-pCMV-myc-PL (C3). The plasmid was introduced into the selected EA-NLS/NRS expressing clone isolated above by FuGene 6 transfection. Another round of screening in the presence of 300-500 μg/mL of G418 was used to select GR-PL transfected clones. Clonal selection was performed to finally identify the clone that was used in these studies. In the studies using the CHO-K1+cyto-EA and cJUN-PL, the same Invitrogen pcDNA3.1 Hygro vector was used to express EA. In this case, the EA fragment was subcloned into the Kpn I/Not I sites of pcDNA3.1 Hygro. The plasmid DNA was introduced as described above using FuGene6 reagent. Cells were selected in the presence of 250 μg/mL of hygromycin and clonal selection was performed. The c-Jun gene was generated by PCR using an existing template copy of the gene and then subcloned into the Xho I/Bam HI sites of pCMV-PL-myc (C3).
# In the next experiment, an antibiotic selected pool population of CHO-K1 cells that express EA-NLS/NRS and GR-PL were tested with the same six set of cell cycle blocking compounds. […] FIGS. 2a and 2b show the immunofluorescence localization of EA and GR-PL in that the blue DAPI nuclear staining can be seen to be concentrated in the nucleus, while the green fluorescein stain on the antibody (from Abcam PLC) to the glucocorticoid receptor is seen in the cytoplasm. […] Again, six tables are presented one for each of the six drugs tested.
# This only occurs with compounds that block the cells in mitosis, allowing EA and ProLabel to complement.
# [3] = test system: C2C12+EA-NLS/NRS+GR-PL cells; experiment: EFC mitotic index assay, C2C12+EA-NLS/NRS+GR-PL cells (Stanford GR cells); assay type: cell-based, mouse; settings: 24 hours, 30 min read
# Description: as §1, §2
# [4] = test system: CHO-K1+cyto-EA cells transfected with cJUN-PL; experiment: EFC mitotic index assay, CHO-K1+cyto-EA cells transiently transfected with cJUN-PL; assay type: cell-based; settings: for Avg luminescence readout / R1 luminescence readout / R3 luminescence readout / Ratio (Avg vs 0 conc): overnight
# Description: as §2
# To further test the concept of sequestering of one β-galactosidase enzyme fragment in the nucleus (in this case PL) while localizing the other component in the cytoplasm (in this case EA) the following experiment was carried out. […] The cyto-EA cells were transiently transfected with cJUN-PL plasmid DNA. Two days after the transfection, the cells were re-plated into a 96 well Corning white clear bottom multiwell plate at 20,000 cells/well. The cells were allowed to adhere overnight and the next day were treated with titrating concentrations of the six different cell cycle blocking compounds. The incubation was carried out overnight. The next day the media was removed from the cells and 100 μL of Tropix/ABI Gal screen cell lysis/substrate reagent was added to the cells.
# [5] = High conc (nocodazole 10 μg/mL, colchicine 1 μ/mL, dexamethasone 300 μM, RU486 30 μM)
# [6] = Low conc (nocodazole 1.11 μg/mL, colchicine 0.1 μ/mL, dexamethasone 30 μM, RU486 3.33 μM)
# [7] = Med conc (nocodazole 3.33 μg/mL, colchicine 0.3 μ/mL, dexamethasone 100 μM, RU486 10 μM)
smiles,measurement,setting,value
CC#C[C@]1(O)CC[C@H]2[C@@H]3CCC4=CC(=O)CCC4=C3[C@@H](c3ccc(N(C)C)cc3)C[C@@]21C [RU486],Avg luminescence readout,[1]; [5],2882
same,R1 luminescence readout,[1]; [5],3199
same,R3 luminescence readout,[1]; [5],2657
same,Ratio (Avg vs 0 conc),[1]; [5],1
same,Avg luminescence readout,[1]; [6],2416
same,R1 luminescence readout,[1]; [6],2692
same,R3 luminescence readout,[1]; [6],2298
same,Ratio (Avg vs 0 conc),[1]; [6],1
same,Avg luminescence readout,[1]; [7],2402
same,R1 luminescence readout,[1]; [7],2578
same,R3 luminescence readout,[1]; [7],2249
same,Ratio (Avg vs 0 conc),[1]; [7],1
NC(=O)NO [Hydroxyurea],Avg luminescence readout,[2]; 1.0 μg/mL,4562
same,R1 luminescence readout,[2]; 1.0 μg/mL,4403
same,R3 luminescence readout,[2]; 1.0 μg/mL,4740
same,Ratio (Avg vs 0 conc),[2]; 1.0 μg/mL,1
same,Avg luminescence readout,[2]; 3.3 μg/mL,4389
same,R1 luminescence readout,[2]; 3.3 μg/mL,4423
same,R3 luminescence readout,[2]; 3.3 μg/mL,4304
same,Ratio (Avg vs 0 conc),[2]; 3.3 μg/mL,1
same,Avg luminescence readout,[2]; 10.0 μg/mL,3959
same,R1 luminescence readout,[2]; 10.0 μg/mL,3865
same,R3 luminescence readout,[2]; 10.0 μg/mL,3897
same,Ratio (Avg vs 0 conc),[2]; 10.0 μg/mL,1
same,Avg luminescence readout,[2]; 30.0 μg/mL,3793
same,R1 luminescence readout,[2]; 30.0 μg/mL,3825
same,R3 luminescence readout,[2]; 30.0 μg/mL,3785
same,Ratio (Avg vs 0 conc),[2]; 30.0 μg/mL,1
same,increase in EFC activity (in words),[2]; overnight treatment,did not cause an increase in EFC activity
same,Avg luminescence readout,[3]; 1.0 μg/mL,11689
same,R1 luminescence readout,[3]; 1.0 μg/mL,12080
same,R3 luminescence readout,[3]; 1.0 μg/mL,11424
same,Ratio (Avg vs 0 conc),[3]; 1.0 μg/mL,1
same,Avg luminescence readout,[3]; 3.3 μg/mL,11522
same,R1 luminescence readout,[3]; 3.3 μg/mL,12588
same,R3 luminescence readout,[3]; 3.3 μg/mL,11171
same,Ratio (Avg vs 0 conc),[3]; 3.3 μg/mL,1
same,Avg luminescence readout,[3]; 10.0 μg/mL,9211
same,R1 luminescence readout,[3]; 10.0 μg/mL,8813
same,R3 luminescence readout,[3]; 10.0 μg/mL,9419
same,Ratio (Avg vs 0 conc),[3]; 10.0 μg/mL,1
same,Avg luminescence readout,[3]; 30.0 μg/mL,7221
same,R1 luminescence readout,[3]; 30.0 μg/mL,7272
same,R3 luminescence readout,[3]; 30.0 μg/mL,7165
same,Ratio (Avg vs 0 conc),[3]; 30.0 μg/mL,1
same,Avg luminescence readout,[4]; 3.0 μg/mL,7420
same,R1 luminescence readout,[4]; 3.0 μg/mL,7319
same,R3 luminescence readout,[4]; 3.0 μg/mL,6690
same,Ratio (Avg vs 0 conc),[4]; 3.0 μg/mL,1.2
same,Avg luminescence readout,[4]; 10.0 μg/mL,7634
same,R1 luminescence readout,[4]; 10.0 μg/mL,8237
same,R3 luminescence readout,[4]; 10.0 μg/mL,6699
same,Ratio (Avg vs 0 conc),[4]; 10.0 μg/mL,1.3
same,Avg luminescence readout,[4]; 30.0 μg/mL,6984
same,R1 luminescence readout,[4]; 30.0 μg/mL,7217
same,R3 luminescence readout,[4]; 30.0 μg/mL,6624
same,Ratio (Avg vs 0 conc),[4]; 30.0 μg/mL,1.2
same,Avg luminescence readout,[4]; 100.0 μg/mL,7742
same,R1 luminescence readout,[4]; 100.0 μg/mL,7955
same,R3 luminescence readout,[4]; 100.0 μg/mL,7483
same,Ratio (Avg vs 0 conc),[4]; 100.0 μg/mL,1.3
same,increase in EFC activity (in words),[4]; overnight incubation,negligible increase in EFC activity
"C[C@@H]1C[C@H]2[C@@H]3CCC4=CC(=O)C=C[C@]4(C)[C@@]3(F)[C@@H](O)C[C@]2(C)[C@@]1(O)C(=O)CO [Dexamethasone, dexamethasone]",Avg luminescence readout,[1]; [5],2559
same,R1 luminescence readout,[1]; [5],3173
same,R3 luminescence readout,[1]; [5],1934
same,Ratio (Avg vs 0 conc),[1]; [5],7
same,Avg luminescence readout,[1]; [6],1258
same,R1 luminescence readout,[1]; [6],1528
same,R3 luminescence readout,[1]; [6],1016
same,Ratio (Avg vs 0 conc),[1]; [6],3
same,Avg luminescence readout,[1]; [7],1697
same,R1 luminescence readout,[1]; [7],2033
same,R3 luminescence readout,[1]; [7],1290
same,Ratio (Avg vs 0 conc),[1]; [7],4
